Measured values: patent publication US4088772A, “Methanodibenzocycloheptapyrroles” (E. I. Du Pont de Nemours and Company, priority 1975, dated 1978)
Where a name gives a salt, the structure may show the parent alone. Read-outs that look alike come from different tables or passages of the source.

Tests used:
female white mice = assay: animal or person; details: oral; for ED50: Mus musculus, po; for ED50 / Catatonia ED50 / Exploratory Loss Visual ED50 / Muscle Tone ED50 / Ptosis ED50 / Reflexes Grip ED50 / Reflexes Lift ED50 / Reflexes Pinna ED50 / Tremors ED50: mice; for LD50 / Catatonia ED50 / Exploratory Loss Visual ED50 / Muscle Tone ED50 / Ptosis ED50 / Reflexes Grip ED50 / Reflexes Lift ED50 / Reflexes Pinna ED50 / Tremors ED50: Table 1; for LD50: 24-hour value
Method: (§1) Groups of five Carworth CF1 S female mice, 16-20 g each, were fasted 16-22 hours before use. The mice were put in opaque plastic "shoe-box" cages 15-30 min. before injection, and then treated orally with 4, 12, 36, 108 and 324 mg/kg of the compound to be tested as a 13 mg/ml solution in 1% aqueous distilled water solution of methylcellulose (Methocel®). Each dose was given in a standard volume of 0.45 ml. Observations were made at 0.5, 2 and 24 hours after dosing. ED50 values were calculated for each parameter including death (LD50). The ED50 and LD50 values are the doses at which 50% of the naimals would be expected to respond.
(§2) The mouse is placed on a stainless steel wire mesh screen (8 × 12 inches, 3 mesh per inch, 1/4 inch mesh openings) "shoe-box" lid (1 inch high) and is observed for normal activities, such as nose movements, head movements with apparent visual examination of the area, and/or walking around on the screen. Absence of or marked depression of these activities for 5 seconds constitutes loss of exploratory activity.
(§3) The mouse is picked up by the tail and placed on the screen with its head facing the observer. Bilateral eyelid closure of 50% or more two seconds after placement is considered ptosis.
(§4) The mouse is placed with its front paws on the edge of a stainless steel "shoe-box" cover, 1 inch high, covered with adhesive tape. Failure to remove both paws from the cover's edge within 5 seconds constitutes catatonia.
(§5) The observer gently strokes the abdominal musculature of the mouse with thumb and forefinger. Flaccidity (or rarely, tenseness) is recorded.
(§6) The mouse is gently swung by the tail toward a horizontal 12 gauge wire tautly stretched 25 cm above the bench. After the mouse grasps the wire with its forepaws, its posterior end is held directly below the wire. A normal mouse grasps the wire with its forepaws and immediately lifts its hind limbs to the wire. Failure to grasp the wire with the forepaws in both trials constitutes loss of the grip reflex; failure to lift the hind limbs to grasp the wire with at least one hind paw within 5 seconds constitutes loss of the lift reflex.
(§7) The mouse is placed on the bar 10-20 cm horizontally and 9 cm vertically from a Galton whistle adjusted for 13 kc (5 mm on the whistle scale) and is subjected to several short bursts of sound.
(§8) An effective tranquilizer should induce little or no tremor response. […] Tremors include fine or coarse and intermittent or continuous tremors.

in vivo = details: mouse, in vivo, po
Method: as §1, §2, §3, §4, §5, §6, §7, §8

[1] = tested on: phenylquinone-induced writhing; assay: Phenylquinone writhing test (analgesia); type: in vivo, mouse (Carworth CF1 S female); details: Table 1; oral, mice
From the text: This mouse test is predictive of analgesic response in humans. [E. Siegmund, R. Cadmus and G. Lee, Proc. Soc.
ED50 values were obtained graphically from the data.

[2] = read-out: Catatonia ED50, Table III
[3] = read-out: Exploratory Loss Visual ED50, Table III
[4] = read-out: Muscle Tone ED50, Table III
[5] = read-out: Ptosis ED50, Table III
[6] = read-out: Reflexes Grip ED50, Table III
[7] = read-out: Reflexes Lift ED50, Table III
[8] = read-out: Reflexes Pinna ED50, Table III

Compound	ED50 (female white mice; [2]) [mg/kg]	ED50 (female white mice; [3]) [mg/kg]	ED50 (female white mice; [4]) [mg/kg]	ED50 (female white mice; [5]) [mg/kg]	ED50 (female white mice; [6]) [mg/kg]	ED50 (female white mice; [7]) [mg/kg]	ED50 (female white mice; [8]) [mg/kg]	LD50 at 24 h (in vivo) [mg/kg]	LD50 (female white mice) [mg/kg]	Catatonia ED50 (female white mice) [mg/kg]	Exploratory Loss Visual ED50 (female white mice) [mg/kg]	Muscle Tone ED50 (female white mice) [mg/kg]	Ptosis ED50 (female white mice) [mg/kg]	Reflexes Grip ED50 (female white mice) [mg/kg]	Reflexes Lift ED50 (female white mice) [mg/kg]	Reflexes Pinna ED50 (female white mice) [mg/kg]	Tremors ED50 (female white mice) [mg/kg]	Phenylquinone Analgesia ED50 [1] [mg/kg]
Cl.Clc1ccc2c(c1)C1CN(CC3CCCCC3)CC13CC2c1ccccc13 (centres unmarked) [Example 81, 11-Chloro-2-cyclohexylmethyl-2,3,8,12b-tetrahydro-1H-3a,8-methanodibenzo[3,4:6,7]cyclohepta[1,2-c]-pyrrole Hydrochloride]	19	17	12	< 3	> 324	36	11	> 324										
Nitro-2-methyl-2,3,8,12b-tetrahydro-1H-3a,8-methanodibenzo[3,4:6,7]cyclohepta[1,2-c]pyrrole Hydrochloride [Example 57]									200	> 324	20	60	12	> 324	> 324	12	100	5
5- and 11-Chloro-2-cyclohexylmethyl-2,3,8,12b-tetrahydro-1H-3a,8-methanodibenzo[3,4:6,7]cyclohepta[1,2-c]pyrrole [Example 44]									> 324	19	17	12	< 3	> 324	36	11	> 324	
c1ccc2c(c1)C1CC3(CN(CC4CCCC4)CC23)c2ccccc21 (single isomer, unassigned; (+)) [(+)-Cyclopentylmetnyl, 2-Cyclopentylmethyl-2,3,8,12b-tetrahydro-trans-1H,-3a,8-methanodibenzo[3,4:6,7]cyclohepta[1,2-c]pyrrole]									> 324	36	36	60	20	200	60	20	> 324	24
Cc1ccc2c(c1)[C@]13C[C@H]2c2ccccc2[C@H]1CN(CC1CCCC1)C3 (relative stereo) [Example 89, 5-Methyl-2-cyclopentylmethyl-2,3,8,12b-tetrahydro-1H-3a,8-methanodibenzo[3,4:6,7]cyclohepta[1,2-c]pyrrole]	50	9	50	15	< 81	25	15	> 81										
O=[N+]([O-])c1ccc2c(c1)[C@]13C[C@H]2c2ccccc2[C@H]1CN(CC1CCCC1)C3 (relative stereo) [Example 63, 5-Nitro-2-cyclopentylmethyl-2,3,8,12b-tetrahydro-1H-3a,8-methanodibenzo[3,4:6,7]cyclohepta[1,2-c]pyrrole Hydrochloride]	200	12	36	7	> 324	100	20	> 324										
5- and 11-Chloro-2-methyl-2,3,8,12b-tetrahydro-1H- 3a,8-methanodibenzo[3,4:6,7]cyclohepta[1,2-c]pyrrole [Example 43]									200	100	7	20	20	60	20	20	36	
